For test [1], the target named is T1, Melatonin receptor type 1B (Homo sapiens, UniProt P49286).
T1 sequence (P49286 whole entry): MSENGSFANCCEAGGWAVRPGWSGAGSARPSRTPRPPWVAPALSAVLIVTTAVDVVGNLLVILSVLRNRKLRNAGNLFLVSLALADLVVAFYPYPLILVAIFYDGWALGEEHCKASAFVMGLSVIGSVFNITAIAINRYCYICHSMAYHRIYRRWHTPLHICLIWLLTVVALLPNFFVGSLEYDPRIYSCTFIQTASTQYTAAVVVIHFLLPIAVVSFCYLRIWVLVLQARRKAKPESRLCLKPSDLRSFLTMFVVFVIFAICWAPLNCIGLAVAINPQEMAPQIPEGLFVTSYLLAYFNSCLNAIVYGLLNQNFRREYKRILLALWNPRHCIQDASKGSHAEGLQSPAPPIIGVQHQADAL
Briefly: Displacement of 2[125I]iodomelatonin from human recombinant MT2 receptor expressed in NIH3T3 cells. It counts as cell-based.

The target in test [2] is Melatonin receptor type 1A (Homo sapiens, UniProt P48039). Briefly: Displacement of 2[125I]iodomelatonin from human recombinant MT1 receptor expressed in NIH3T3 cells. It counts as cell-based.
Melatonin receptor type 1A, sequence (P48039 whole entry): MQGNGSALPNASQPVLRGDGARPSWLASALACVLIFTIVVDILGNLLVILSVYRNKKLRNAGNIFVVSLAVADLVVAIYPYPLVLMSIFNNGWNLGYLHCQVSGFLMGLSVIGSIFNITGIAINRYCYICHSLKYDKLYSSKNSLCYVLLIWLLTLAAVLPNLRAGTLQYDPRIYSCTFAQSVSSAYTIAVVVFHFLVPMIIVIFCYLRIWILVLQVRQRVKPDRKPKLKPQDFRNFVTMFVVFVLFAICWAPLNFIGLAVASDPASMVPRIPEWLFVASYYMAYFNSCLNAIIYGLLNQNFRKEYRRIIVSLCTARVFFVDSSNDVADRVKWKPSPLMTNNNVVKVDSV
In test [3] the target is T2, Melatonin receptor type 1C (Xenopus laevis, UniProt P49219).
T2 sequence (P49219 whole entry): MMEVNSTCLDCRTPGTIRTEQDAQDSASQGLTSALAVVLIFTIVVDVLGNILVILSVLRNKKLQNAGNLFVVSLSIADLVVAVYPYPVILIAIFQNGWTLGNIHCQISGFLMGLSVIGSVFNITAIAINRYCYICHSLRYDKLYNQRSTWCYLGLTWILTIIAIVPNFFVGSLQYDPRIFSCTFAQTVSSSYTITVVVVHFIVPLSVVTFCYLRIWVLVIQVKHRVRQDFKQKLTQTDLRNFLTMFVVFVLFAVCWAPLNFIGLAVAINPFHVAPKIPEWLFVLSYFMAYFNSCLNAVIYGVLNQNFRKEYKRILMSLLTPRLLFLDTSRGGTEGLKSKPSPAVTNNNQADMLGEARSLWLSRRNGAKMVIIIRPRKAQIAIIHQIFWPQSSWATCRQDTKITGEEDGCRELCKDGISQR
In words: Effect on pigment aggregation in Xenopus laevis melanophores. Format: functional.

Test [4] deals with T3, Melatonin receptor type 1C (Xenopus laevis) (UniProt P49219).
T3 sequence (whole entry): T2 sequence (P49219 whole entry)
Briefly: Effect on pigment aggregation in Xenopus laevis melanophores at 10 uM. Format: functional.

The source made the active and inactive calls. The rule behind the calls is not given here.

Turning to `COc1cc(-c2ccccc2)c2c(c1)c(CCNC(C)=O)cn2C`, the Ki – broadly, the equilibrium dissociation constant of an inhibitor or competing ligand from its target – is 457 nM in test [1] and 1260 nM in test [2]. In addition, the EC50 (commonly the concentration at which the effect is half-maximal) in test [3] is 339 nM.

On to `CCCC(=O)NCCc1c[nH]c2c(Br)cc(OC)cc12`, for which the values for the Ki in test [1] and in test [2] were 0.355 nM and 5.13 nM, respectively. For the same compound, in test [3], the EC50 was 3.47 nM.

Regarding `CCCC(=O)NCCc1cn(C)c2c(C)cc(OC)cc12`, the Ki in test [1] was 1.35 nM; in test [2], 19.5 nM. Moreover, it took 16.6 nM to reach a half-maximal effect in test [3] (EC50).

For the compound `COc1cc(Br)c2[nH]cc(CCNC(C)=O)c2c1`, the Ki in test [1] was 0.676 nM; in test [2], 3.55 nM. The EC50 in test [3] is 3.31 nM.

As to `CCC(=O)NCCc1c[nH]c2c(Br)cc(OC)cc12`, the Ki in test [1] was 0.537 nM; in test [2], 4.17 nM. This compound showed an EC50 in test [3] of 11.5 nM.

Regarding `COc1cc(-c2ccccc2)c2[nH]cc(CCNC(C)=O)c2c1`, the figures for the Ki in test [1] and in test [2] were 3020 nM and 12900 nM, respectively. In addition, in test [3], the response was half-maximal at 120 nM (EC50).

On to `CCCC(=O)NCCc1cn(C)c2c(-c3ccccc3)cc(OC)cc12`, for which the result in test [4] was inactive. Moreover, the Ki is 851 nM in test [1] and 5370 nM in test [2].

Turning to `CCCC(=O)NCCc1cn(C)c2c(Br)cc(OC)cc12`, the Ki in test [1] was 2.14 nM; in test [2], 33.1 nM. The compound further showed an EC50 in test [3] of 52.5 nM.

In the case of `CCC(=O)NCCc1c[nH]c2c(C)cc(OC)cc12`, the Ki in test [1] was 1.1 nM; in test [2], 1.78 nM. In test [3], this compound had an EC50 of 31.6 nM.

Turning to `COc1cc(C)c2[nH]cc(CCNC(C)=O)c2c1`, the figures for the Ki in test [1] and in test [2] were 1.74 nM and 2.69 nM, respectively. Besides, in test [3], the EC50 is 45.7 nM.

In the case of `COc1cc(Br)c2c(c1)c(CCNC(C)=O)cn2C`, the Ki in test [1] was 1.32 nM; in test [2], 10.5 nM. For the same compound, in test [3], the EC50 was 24.5 nM.

For `CCCC(=O)NCCc1c[nH]c2c(-c3ccccc3)cc(OC)cc12`, the Ki was 871 nM in test [1] and 955 nM in test [2]. This compound also showed an EC50 in test [3] of 45.7 nM.

On to `CCC(=O)NCCc1c[nH]c2c(-c3ccccc3)cc(OC)cc12`, for which the Ki in test [1] and in test [2] was 617 nM each time. Moreover, in test [3], the 50% effective concentration (EC50) is 155 nM.

As to `COc1cc(C)c2c(c1)c(CCNC(C)=O)cn2C`, the Ki in test [1] was 1.55 nM; in test [2], 8.71 nM. In test [3], this compound gave an EC50 of 9.77 nM.

The compound `COc1ccc2[nH]cc(CCNC(C)=O)c2c1` [MELATONIN] gave a 50% effective concentration (EC50) in test [3] of 0.0794 nM.

Take `CCCC(=O)NCCc1c[nH]c2c(C)cc(OC)cc12`: the Ki in test [1] is 0.676 nM; in test [2], 2.88 nM. In addition, in test [3], the 50% effective concentration (EC50) was 12.6 nM.

As for `CCC(=O)NCCc1cn(C)c2c(-c3ccccc3)cc(OC)cc12`, in test [4], the outcome was inactive. Besides, the Ki is 676 nM in test [1] and 5890 nM in test [2].

Turning to `CCC(=O)NCCc1cn(C)c2c(C)cc(OC)cc12`, the figures for the Ki in test [1] and in test [2] were 2.63 nM and 15.8 nM, respectively. The compound further gave an EC50 in test [3] of 15.8 nM.

As to `CCC(=O)NCCc1cn(C)c2c(Br)cc(OC)cc12`, the Ki in test [1] was 2.29 nM; in test [2] it was 14.1 nM. Moreover, the response in test [3] was half-maximal at 64.6 nM (EC50).

The values above are taken from ChEMBL document CHEMBL1148025, “7-Substituted-melatonin and 7-substituted-1-methylmelatonin analogues: effect of substituents on potency and binding affinity” (Bioorg Med Chem, 2007).
